Experimental findings from patent publication US6815557B2, “Tryptase inhibitors” (Altana Pharma AG, priority 1999, dated 2004) are described below.

For the test, the target named is human tryptase. The experiment in a line: Inhibition of human tryptase (apparent dissociation constant Kiapp, chromogenic substrate tos-Gly-Pro-arg-pNA, heparin-stabilized). Type of test: biochemical. The note with it: apparent dissociation constant in the presence of substrate; human tryptase from lung tissue or recombinant; heparin 0.1-50 μg/ml; equilibrium conditions. From the text:
The documented pathophysiological effects of mast cell tryptase are caused directly by the enzymatic activity of the protease. Accordingly, they are reduced or blocked by inhibitors which inhibit the enzymatic activity of the tryptase. A suitable measure for the affinity of a reversible inhibitor to the target protease is the equilibrium dissociation constant Ki of the enzyme-inhibitor complex. This Ki value can be determined via the effect of the inhibitor on the tryptase-induced cleavage of a chromogenic peptide-p-nitroanilide substrate or a fluorogenic peptide-aminomethylcoumarin substrate.
The dissociation constants for the tryptase-inhibitor complexes are determined under equilibrium conditions in accordance with the general proposals of Bieth (Bieth J G, Pathophysiological Interpretation of kinetic constants of protease inhibitors, Bull. Europ. Physiopath. Resp. 16:183-195, 1980) and the methods of Sommerhoff et al. (Sommerhoff C P et al., A Kazal-type inhibitor of human mast cell tryptase: Isolation from the medical leech Hirudo medicinalis, characterization, and sequence analysis, Biol. Chem. Hoppe-Seyler 375: 685-694, 1994).
Human tryptase is isolated from lung tissue or prepared recombinantly; the specific activity of the protease, determined by titration, is usually greater than 85% of the theoretical value. […] After an equilibrium between the reaction partners has formed, the remaining enzyme activity after addition of the peptide-p-nitroanilide substrate tos-Gly-Pro-arg-pNA is determined and the cleavage of the latter is monitored at 405 nm for 3 min. Alternatively, the remaining enzymatic activity can also be determined using fluorogenic substrates. The apparent dissociation constants Kiapp (i.e. in the presence of substrate) are subsequently determined by adapting the enzyme rates to the general equation for reversible inhibitors (Morrison J F, Kinetics of the reversible inhibition of enzyme-catalyzed reactions by tight-binding inhibitors, Biochim. Biophys. Acta 185, 269-286, 1969) using non-linear regression: […]

Structures can show the parent of a compound that is named as a salt.

In the case of `NCc1cccc(CNC(=O)OCCOCC#CCOCCOC(=O)NCc2cccc(CN)c2)c1` [Compound 1, 1,4-Bis-(3-aminomethylbenzylaminocarbonyl-1,2-dioxyethyl)-2-butyne dihydrochloride], the Ki was found to be 6 nM.
For `NCc1cccc(CNC(=O)OCC#CCOC(=O)NCc2cccc(CN)c2)c1` [Compound 3, 1,4-Bis-(3-aminomethylbenzylaminocarbonyl-1-oxy)-2-butyne dihydrochloride] the value was 100 nM; for `NCc1ccc(CNC(=O)OCC#CC#CCOC(=O)NCc2ccc(CN)cc2)cc1` [Compound 2, 1,6-Bis-(4-aminomethylbenzylaminocarbonyl-1-oxy-2,4-hexadiynedihydrochloride], 450 nM.
